Values quoted from earlier work as cited in patent EP1939174A1, “Inclusion complex of ezetimibe and a cyclodextrin and processes in the preparation thereof” (LEK Pharmaceuticals d.d., priority 2006, dated 2008).

O=C1[C@H](CC[C@H](O)c2ccc(F)cc2)[C@@H](c2ccc(O)cc2)N1c1ccc(F)cc1 [Ezetimibe, 1-4(fluorophenyl)-3-(R)-[3-(4-fluorophenyl)-3-(S)-hydroxypropyl]-4-(S)-(4-hydroxyphenyl)-2-azetidinone]
solubility in alcohols and acetone (in alcohols and acetone): freely soluble | solubility in water (in water): practically insoluble
